Test results taken from US11007136B2, “Cosmetic composition for wrinkle reduction containing gypenoside isolated from Gynostemma pentaphyllum” (CELLTRION INC., priority 2015, dated 2021).

How the values were obtained:
[1] = Titer stability of UL4 and UL5 within formulations (HPLC); format: physicochemical; conditions: for content stability Result: over 12 weeks
Procedure: As shown in Formulation Examples 1, 2 and 3, cosmetic compositions of a high viscosity emulsified formulation, a low viscosity emulsified formulation and a solubilized formulation, respectively comprising 0.2% of the Gynostemma pentaphyllum gypenoside fraction, were stored under a condition of 4 CC, 30 CC, 45° C. and sunlight for 12 weeks and changes with passage of time (% compared to an initial content) in the gypenosides UL4 and UL5, which were index ingredients for quantification out of the Gynostemma pentaphyllum gypenoside ingredients, were observed through an HPLC analysis, and results thereof were indicated in Tables 10 to 12.

[2] = tested on: human dermal fibroblast neonatal; test: Procollagen production (collagen synthesis promotion), ELISA kit; format: cell-based; conditions: 1 and 5 μg/ml, 48 h, versus positive control NAG at the same concentration, FIG. 3
Procedure: A human dermal fibroblast neonatal (Cascade Co.) was inoculated into a 24-well microplate (5×10^4 cells/well) by using a medium, in which Dulbeco's Modified Eagle's Medium (DMEM) was supplemented with 10% fetal bovine serum, thus being cultured under a condition of 37° C. and 5% CO2 for 24 hours. Then, the same was replaced with a serum-free DMEM medium and cultured for 24 hours, after which an appropriate amount of a sample fluid was treated so that a final concentration of each test compound could reach 1 μg/ml and 5 μg/ml. After being cultured for 48 hours, a cell culture fluid was collected and then an amount of procollagen was measured by using a collagen measurement kit of Takara Company (Takara Shuzo Co., Ltd.). First of all, the collected cell culture fluid was injected into a 96-well microplate, to which a primary collagen antibody was evenly applied, such that an antigen-antibody reaction could occur at 37° C. for three hours. The cell culture fluid was removed from the well and washed four times with PBS. A color causing material was injected into each well, after which a reaction took place at a room temperature for 15 minutes, such that 1 N sulfuric acid solution was added thereto, thus stopping the reaction. An optical density was measured at a wavelength of 450 nm by means of a spectrophotometer. […]

[3] = Stability of the fraction in raw material solution (HPLC content of UL4, UL5); format: physicochemical; conditions: for content stability Results: over 12 weeks
Procedure: A solution obtained by dissolving powder of the Gynostemma pentaphyllum gypenoside fraction at a concentration of 4% in 100 mL of a mixed solvent of propylene glycol, glycerin and distilled water at a ratio of 5:3:2 was used to identify stability of the Gynostemma pentaphyllum gypenoside fraction in a raw material state. While the solution was being stored under a condition of 4° C., 30° C. and 45° C. and sunlight for 12 weeks, changes with passage of time (% compared to an initial content) in the gypenosides UL4 and UL5, which were index ingredients for quantification out of the Gynostemma pentaphyllum gypenosides, were observed through an HPLC analysis and results thereof were indicated in Table 3.

## CC(C)=CC1C[C@](O)([C@H]2CC[C@]3(C)[C@@H]2CC[C@@H]2[C@@]4(C=O)CC[C@H](O[C@@H]5OC[C@H](O)[C@H](O[C@@H]6OC[C@@H](O)[C@H](O)[C@H]6O)[C@H]5O[C@@H]5O[C@@H](C)[C@H](O)[C@@H](O)[C@H]5O)C(C)(C)[C@@H]4CC[C@]23C)[C@H](O)O1 (stereo partly drawn) [Gypenoside UL4, (23ξ)-3β,20β,21α-trihydroxy-19-oxo-21,23-epoxy-dammar-24-ene-3-O-[α-L-rhamnopyranosyl (1→2)][β-D-xylopyranosyl (1→3)]-α-L-arabinopyranoside]
[1]; High viscosity emulsified formulation, 4° C., 1 week
  content, % compared to an initial content: 101.9%
[1]; High viscosity emulsified formulation, 4° C., 2 weeks
  content, % compared to an initial content: 95.9%
[1]; High viscosity emulsified formulation, 4° C., 4 weeks
  content, % compared to an initial content: 102%
[1]; High viscosity emulsified formulation, 4° C., 8 weeks
  content, % compared to an initial content: 101.4%
[1]; High viscosity emulsified formulation, 4° C., 12 weeks
  content, % compared to an initial content: 104.1%
[1]; High viscosity emulsified formulation, 4° C.
  content stability Result: Stable
[1]; High viscosity emulsified formulation, 30° C., 1 week
  content, % compared to an initial content: 105.2%
[1]; High viscosity emulsified formulation, 30° C., 2 weeks
  content, % compared to an initial content: 103.1%
[1]; High viscosity emulsified formulation, 30° C., 4 weeks
  content, % compared to an initial content: 104.4%
[1]; High viscosity emulsified formulation, 30° C., 8 weeks
  content, % compared to an initial content: 105.7%
[1]; High viscosity emulsified formulation, 30° C., 12 weeks
  content, % compared to an initial content: 108.2%
[1]; High viscosity emulsified formulation, 30° C.
  content stability Result: Stable
[1]; High viscosity emulsified formulation, 45° C., 1 week
  content, % compared to an initial content: 105.3%
[1]; High viscosity emulsified formulation, 45° C., 2 weeks
  content, % compared to an initial content: 108.2%
[1]; High viscosity emulsified formulation, 45° C., 4 weeks
  content, % compared to an initial content: 107.6%
[1]; High viscosity emulsified formulation, 45° C., 8 weeks
  content, % compared to an initial content: 108.1%
[1]; High viscosity emulsified formulation, 45° C., 12 weeks
  content, % compared to an initial content: 107.1%
[1]; High viscosity emulsified formulation, 45° C.
  content stability Result: Stable
[1]; High viscosity emulsified formulation, Sunlight, 1 week
  content, % compared to an initial content: 102.4%
[1]; High viscosity emulsified formulation, Sunlight, 2 weeks
  content, % compared to an initial content: 99.8%
[1]; High viscosity emulsified formulation, Sunlight, 4 weeks
  content, % compared to an initial content: 101.2%
[1]; High viscosity emulsified formulation, Sunlight, 8 weeks
  content, % compared to an initial content: 99.4%
[1]; High viscosity emulsified formulation, Sunlight, 12 weeks
  content, % compared to an initial content: 103.6%
[1]; High viscosity emulsified formulation, Sunlight
  content stability Result: Stable
[1]; Low viscosity emulsified formulation, 4° C., 1 week
  content, % compared to an initial content: 100.1%
[1]; Low viscosity emulsified formulation, 4° C., 2 weeks
  content, % compared to an initial content: 102.4%
[1]; Low viscosity emulsified formulation, 4° C., 4 weeks
  content, % compared to an initial content: 101.2%
[1]; Low viscosity emulsified formulation, 4° C., 8 weeks
  content, % compared to an initial content: 94.9%
[1]; Low viscosity emulsified formulation, 4° C., 12 weeks
  content, % compared to an initial content: 94.1%
[1]; Low viscosity emulsified formulation, 4° C.
  content stability Result: Stable
[1]; Low viscosity emulsified formulation, 30° C., 1 week
  content, % compared to an initial content: 105.0%
[1]; Low viscosity emulsified formulation, 30° C., 2 weeks
  content, % compared to an initial content: 101.8%
[1]; Low viscosity emulsified formulation, 30° C., 4 weeks
  content, % compared to an initial content: 101.6%
[1]; Low viscosity emulsified formulation, 30° C., 8 weeks
  content, % compared to an initial content: 104.1%
[1]; Low viscosity emulsified formulation, 30° C., 12 weeks
  content, % compared to an initial content: 105.2%
[1]; Low viscosity emulsified formulation, 30° C.
  content stability Result: Stable
[1]; Low viscosity emulsified formulation, 45° C., 1 week
  content, % compared to an initial content: 101.9%
[1]; Low viscosity emulsified formulation, 45° C., 2 weeks
  content, % compared to an initial content: 106.2%
[1]; Low viscosity emulsified formulation, 45° C., 4 weeks
  content, % compared to an initial content: 105.9%
[1]; Low viscosity emulsified formulation, 45° C., 8 weeks
  content, % compared to an initial content: 95.6%
[1]; Low viscosity emulsified formulation, 45° C., 12 weeks
  content, % compared to an initial content: 99.3%
[1]; Low viscosity emulsified formulation, 45° C.
  content stability Result: Stable
[1]; Low viscosity emulsified formulation, Sunlight, 1 week
  content, % compared to an initial content: 96.3%
[1]; Low viscosity emulsified formulation, Sunlight, 2 weeks
  content, % compared to an initial content: 99.5%
[1]; Low viscosity emulsified formulation, Sunlight, 4 weeks
  content, % compared to an initial content: 100.5%
[1]; Low viscosity emulsified formulation, Sunlight, 8 weeks
  content, % compared to an initial content: 99.8%
[1]; Low viscosity emulsified formulation, Sunlight, 12 weeks
  content, % compared to an initial content: 102%
[1]; Low viscosity emulsified formulation, Sunlight
  content stability Result: Stable
[1]; Solubilized formulation, 4° C., 1 week
  content, % compared to an initial content: 98.8%
[1]; Solubilized formulation, 4° C., 2 weeks
  content, % compared to an initial content: 91.9%
[1]; Solubilized formulation, 4° C., 4 weeks
  content, % compared to an initial content: 98.7%
[1]; Solubilized formulation, 4° C., 8 weeks
  content, % compared to an initial content: 97.6%
[1]; Solubilized formulation, 4° C., 12 weeks
  content, % compared to an initial content: 99.5%
[1]; Solubilized formulation, 4° C.
  content stability Result: Stable
[1]; Solubilized formulation, 30° C., 1 week
  content, % compared to an initial content: 100.0%
[1]; Solubilized formulation, 30° C., 2 weeks
  content, % compared to an initial content: 103.2%
[1]; Solubilized formulation, 30° C., 4 weeks
  content, % compared to an initial content: 102.7%
[1]; Solubilized formulation, 30° C., 8 weeks
  content, % compared to an initial content: 98.5%
[1]; Solubilized formulation, 30° C., 12 weeks
  content, % compared to an initial content: 104.5%
[1]; Solubilized formulation, 30° C.
  content stability Result: Stable
[1]; Solubilized formulation, 45° C., 1 week
  content, % compared to an initial content: 102.8%
[1]; Solubilized formulation, 45° C., 2 weeks
  content, % compared to an initial content: 101.6%
[1]; Solubilized formulation, 45° C., 4 weeks
  content, % compared to an initial content: 94.2%
[1]; Solubilized formulation, 45° C., 8 weeks
  content, % compared to an initial content: 97.2%
[1]; Solubilized formulation, 45° C., 12 weeks
  content, % compared to an initial content: 94.9%
[1]; Solubilized formulation, 45° C.
  content stability Result: Stable
[1]; Solubilized formulation, Sunlight, 1 week
  content, % compared to an initial content: 98.8%
[1]; Solubilized formulation, Sunlight, 2 weeks
  content, % compared to an initial content: 94.8%
[1]; Solubilized formulation, Sunlight, 4 weeks
  content, % compared to an initial content: 98.4%
[1]; Solubilized formulation, Sunlight, 8 weeks
  content, % compared to an initial content: 98%
[1]; Solubilized formulation, Sunlight, 12 weeks
  content, % compared to an initial content: 94.6%
[1]; Solubilized formulation, Sunlight
  content stability Result: Stable
[2]
  procollagen-producing effect compared with NAG: the same or larger amount of procollagen
[3]; 4° C., 1 week
  content, % compared to an initial content: 100.2%
[3]; 4° C., 2 weeks
  content, % compared to an initial content: 98.1%
[3]; 4° C., 4 weeks
  content, % compared to an initial content: 96.9%
[3]; 4° C., 8 weeks
  content, % compared to an initial content: 98.3%
[3]; 4° C., 12 weeks
  content, % compared to an initial content: 96.1%
[3]; 4° C.
  content stability Results: Stable
[3]; 30° C., 1 week
  content, % compared to an initial content: 102.8%
[3]; 30° C., 2 weeks
  content, % compared to an initial content: 99.9%
[3]; 30° C., 4 weeks
  content, % compared to an initial content: 98.7%
[3]; 30° C., 8 weeks
  content, % compared to an initial content: 96.5%
[3]; 30° C., 12 weeks
  content, % compared to an initial content: 96.6%
[3]; 30° C.
  content stability Results: Stable
[3]; 45° C., 1 week
  content, % compared to an initial content: 97.1%
[3]; 45° C., 2 weeks
  content, % compared to an initial content: 96.3%
[3]; 45° C., 4 weeks
  content, % compared to an initial content: 102.7%
[3]; 45° C., 8 weeks
  content, % compared to an initial content: 97.5%
[3]; 45° C., 12 weeks
  content, % compared to an initial content: 102.4%
[3]; 45° C.
  content stability Results: Stable
[3]; Sunlight, 1 week
  content, % compared to an initial content: 97.6%
[3]; Sunlight, 2 weeks
  content, % compared to an initial content: 96.6%
[3]; Sunlight, 4 weeks
  content, % compared to an initial content: 96.6%
[3]; Sunlight, 8 weeks
  content, % compared to an initial content: 98.1%
[3]; Sunlight, 12 weeks
  content, % compared to an initial content: 97.1%
[3]; Sunlight
  content stability Results: Stable
